This note sets out measurements from EP0598753B1, “MANGANESE COMPLEXES OF NITROGEN-CONTAINING MACROCYCLIC LIGANDS EFFECTIVE AS CATALYSTS FOR DISMUTATING SUPEROXIDE” (MONSANTO COMPANY, priority 1991, dated 1993).

The nature of data set [1]: Stopped-flow kinetic analysis of catalytic dismutation of superoxide. It counts as biochemical. The following applies: catalytic rate constant for dismutation of superoxide, pH 8.1 and 21°C. The source says:
Stopped-flow kinetic analysis is an accurate and direct method for quantitatively monitoring the decay rates of superoxide in water.
For the attainment of consistent and accurate measurements all reagents were biologically clean and metal-free. To achieve this, all buffers (Calbiochem) were biological grade, metal-free buffers and were handled with utensils which had been washed first with 0.1 N HCl, followed by purified water, followed by a rinse in a 10^-4 M EDTA bath at pH 8, followed by a rinse with purified water and dried at 65°C for several hours. Dry DMSO solutions of potassium superoxide (Aldrich) were prepared under a dry, inert atmosphere of argon in a Vacuum Atmospheres dry glovebox using dried glassware. The DMSO solutions were prepared immediately before every stopped-flow experiment. A mortar and pestle were used to grind the yellow solid potassium superoxide (~100 mg). The powder was then ground with a few drops of DMSO and the slurry transferred to a flask containing an additional 25 ml of DMSO. The resultant slurry was stirred for 1/2 h and then filtered. […] These solutions were transferred to a glovebag under nitrogen in sealed vials prior to loading the syringe under nitrogen. It should be noted that the DMSO/superoxide solutions are extremely sensitive to water, heat, air, and extraneous metals. A fresh, pure solution has a very slight yellowish tint.
Water for buffer solutions was delivered from an in-house deionized water system to a Barnstead Nanopure Ultrapure Series 550 water system and then double distilled, first from alkaline potassium permanganate and then from a dilute EDTA solution. For example, a solution containing 1.0 g of potassium permanganate, 2 liters of water and additional sodium hydroxide necessary to bring the pH to 9.0 were added to a […] fitted with a solvent distillation head. This distillation will oxidize any trace of organic compounds in the water. The final distillation was carried out under nitrogen in a 2.5-liter flask containing 1500 ml of water from the first still and 1.0 x 10^-6M EDTA. This step will remove remaining trace metals from the ultrapure water. To prevent EDTA mist from volatilizing over the reflux arm to the still head, the 40-cm vertical arm was packed with glass beads and wrapped with insulation. This system produces deoxygenated water that can be measured to have a conductivity of less than 2.0 nanomhos/cm^2.
The stopped-flow spectrometer system was designed and manufactured by Kinetic Instruments Inc. (Ann Arbor, MI) and was interfaced to a MAC IICX personal computer. The software for the stopped-flow analysis was provided by Kinetics Instrument Inc. and was written in QuickBasic with MacAdios drivers. Typical injector volumes (0.10 ml of buffer and 0.006 ml of DMSO) were calibrated so that a large excess of water over the DMSO solution were mixed together. […] Aqueous solutions to be mixed with the DMSO solution of superoxide were prepared using 80 mM concentrations of the Hepes buffer, pH 8.1 (free acid + Na form). One of the reservoir syringes was filled with 5 ml of the DMSO solution while the other was filled with 5 ml of the aqueous buffer solution. The entire injection block, mixer, and spectrometer cell were immersed in a thermostatted circulating water bath with a temperature of 21.0 ± 0.5°C.
Prior to initiating data collection for a superoxide decay, a baseline average was obtained by injecting several shots of the buffer and DMSO solutions into the mixing chamber. These shots were averaged and stored as the baseline.

The test system of data set [2] is colonic myeloperoxidase activity. Nature of the data set: Mouse acetic acid-induced colitis model (colonic myeloperoxidase). The format is in vivo. Particulars: 30 mg/kg dose, intracolonic, 30 minutes before acetic acid, tissue after 24 hours. How it is done: Mouse colitis model. […] Mice were lightly anesthetized. A solution of 3% (v/v) aqueous acetic acid was instilled intracolonically via a flexible polyethylene tube. After 24 hours, the animals were killed and colonic tissue samples were obtained. Tissue samples were assessed biochemically for the neutrophil marker enzyme, myeloperoxidase (MPO). The colonic tissue samples were minced, homogenized in detergent, and sonicated. After centrifugation, enzyme activities were assayed spectrophotometrically by determining the decomposition of peroxide using o-dianisidine as the hydrogen donor. Data was obtained as the absorbance (460 nm) at 20 minutes. Test agents were given intracolonically at a dose of 30 mg/kg body weight 30 minutes before acetic acid instillation as a sonicated suspension in 0.5% aqueous methyl cellulose. Vehicle was given to appropriate acetic acid control animals. Normal tissue was obtained from control animals which received only vehicle. Colonic myeloperoxidase activities were determined as units/g wet weight of tissue. Reduction of colonic myeloperoxidase activity by test agents in acetic acid-treated mice is expressed as % inhibition (Table 2). Colonic myeloperoxidase activity correlated with the degree of tissue inflammation as assessed by visual and histological analysis.

The subject of data set [3] is human aortic endothelial cells (HAE cells).
Excerpt: (§1) Human peripheral blood neutrophils were isolated from fresh venous blood of healthy volunteers. EDTA anticoagulated blood was separated using a single step density centrifugation (Polymorphprep; Nycomed Pharma, Oslo, Norway) followed by several washes in Hank's balanced salt solution supplemented with 0.5% BSA (Bovine Serum Albumin) (HBSSB) and the hypertonic lysis of erythrocytes. Neutrophils were counted via Coulter electronic particle counter and resuspended in HBSSB supplemented with 25% Endothelial Basal Medium (EBM), (Clonetics Corporation, San Diego, CA) at a concentration of 5 x 10^6 polymorphonuclear leukocytes (PMN)/ml.
(§2) The cytotoxic effects of stimulated neutrophils on endothelial cells were determined using a ^51Cr-release assay as previously described (Moldow, C.F., and Jacob, H.S. (1984) Methods Enzymol. 105, 378-385). Confluent monolayers of human aortic endothelial cells (HAE cells; Clonetics) grown in 96-well culture plates were prelabeled with 1 µCi/well ^51Cr (Na2 ^51Cr2O4, New England Nuclear, Boston, MA). The cells were incubated for 18 h at 37°C, then cytokine-activated with 10 Units/well human recombinant tumor necrosis factor-a (hrTNF-α; Monsanto Company, St. Louis, MO) for 4 h at 37°C. The cells were washed twice to remove unincorporated radioactivity with Hank's balanced salt solution supplemented with 0.5% BSA. To assess inhibition of PMN-mediated cytotoxicity, manganese(II) complexes at various doses (0-300 µM) were added to five replicate wells/dose of HAE cells immediately prior to the addition of PMN. Suspensions of PMN in HBSSB supplemented with 25% Endothelial Basal Medium were added to the wells at a neutrophil to endothelial cell ratio of 50:1. The PMN were allowed to adhere for 15 minutes at 37°C, primed with 125 Units/well hrTNF-α (Berkow, R.L., Wang, D., Larrick, J.W., Dodson, R.W., and Howard, T.H. (1987) J. Immunol. 139, 3783-3791; Varani, J.; Bendelow, M. J. Sealey, D. E.; Kunkel, S. L.; Gannon, D. E.; Ryan, U.S.; and Ward, P.A. (1987) Lab. Invest., 59, 292-295) for 10 minutes, and stimulated with human recombinant complement component C5a (Sigma Chemical, St. Louis, MO). […] After an additional incubation of 4 hours at 37°C, 200 µl of the 250 µl reaction volume (soluble fraction) was removed to a tube for counting. The cells were washed twice with 200 µl HBSSB (nonadherent fraction) and the washes pooled with the soluble fraction. The adherent fraction was collected by lysing the HAE cells with 200 µl 1N NaOH for 30 minutes and removing to separate tubes. Both fractions were analyzed by gamma scintillation spectrometry. The percentage cytotoxicity was calculated by the following formula: % Cytotoxicity =(cpm (soluble + nonadherent fractions))/(cpm (soluble + nonadherent + adherent fractions))x 100 [formula] Specific cytotoxicity reflects the difference between ^51Cr-release induced by stimulated PMN and unstimulated PMN. The IC50 values for the manganese(II) complexes for protection against neutrophil-mediated cytotoxicity were determined from a computer-driven logistic regression equation from a plot of % specific cytotoxicity versus the concentration of the manganese(II) complex.
Data set [4] shares this test system. Nature of the data set: Neutrophil-mediated cytotoxicity assay (51Cr-release). The following applies: 50% inhibition of specific cytotoxicity; human neutrophil-mediated killing of human aortic endothelial cells.
Excerpt: as §1, §2

Molecule `CC1CNCCNCCNCCNCCN1.[Cl-].[Cl-].[Mn+2]` (stereo not drawn) [Example 2, [Manganese(II)dichloro(2-Methyl-1,4,7,10,13-pentaazacyclopentadecane)]] had a kCAT in data set [1] of 2.67e+07 M⁻¹ s⁻¹. Further, in data set [2], the “% Inhibition of Colonic Myeloperoxidase Activity” value (“% Inhibition” below) came to 47%. In data set [3], the “protection against human neutrophil-mediated cytotoxicity, in words” value (“protection” for short) is recorded as “protective against human neutrophil-mediated cytotoxicity”.

In the case of `CC(C)CC1CNCCNCCNCCNCCN1.[Cl-].[Cl-].[Mn+2]` (stereo not drawn) [Example 5, [Manganese(II)dichloro(2-(2-Methylpropyl)-1,4,7,10,13-pentaazacyclopentadecane)]], the “% Inhibition” value in data set [2] is reported as 70%. Moreover, in data set [3], the “protection” value is “protective against human neutrophil-mediated cytotoxicity”.

Consider `[Cl-].[Cl-].[Mn+2].c1ccc(CC2CNCCNCCNCCNCCN2)cc1` (stereo not drawn) [Example 6, [Manganese(II)dichloro(2-Phenylmethyl-1,4,7,10,13-pentaazacyclopentadecane)]], for which, in data set [2], the “% Inhibition” value worked out at 48%.

Regarding `C1CCC(CC2CNCCNCCNCCNCCN2)CC1.[Cl-].[Cl-].[Mn+2]` (stereo not drawn) [Example 7, [Manganese(II)dichloro(2-Cyclohexylmethyl-1,4,7,10,13-pentaazacyclopentadecane)]], the “% Inhibition” value in data set [2] was 77%. The “protection” value in data set [3] was “protective against human neutrophil-mediated cytotoxicity”. In addition, the half-inhibitory concentration (IC50) in data set [4] was found to be 22 µM.

Molecule `C1CNCCNCCNCCNCCN1.F[P-](F)(F)(F)(F)F.[Cl][Mn+]` [Example 27, [Manganese(II)chloro(1,4,7,10,13-Pentaazacyclopentadecane)]Hexafluorophosphate] yielded a kCAT in data set [1] of 2.4e+07 M⁻¹ s⁻¹. In data set [3], the “protection” value is “protective against human neutrophil-mediated cytotoxicity”. This molecule registered a 50% inhibitory concentration (IC50) in data set [4] of 26 µM.

Turning to “[Manganese(II)diacetate(1,4,7,10,13-Pentaazacyclopentadecane)] [Example 8]”, the “% Inhibition” value in data set [2] was 32%. In data set [3], the “protection” value is on record as “protective against human neutrophil-mediated cytotoxicity”.

The molecule “[Manganese(II)dichloro((S)-2-Methyl-1,4,7,10,13-pentaazacyclopentadecane)] [Example 3]” came in with a kCAT in data set [1] of 2.39e+07 M⁻¹ s⁻¹. The “% Inhibition” value in data set [2] came out at 42%. For the same molecule, the “protection” value in data set [3] is recorded as “protective against human neutrophil-mediated cytotoxicity”. In data set [4], this molecule displayed an IC50 of 37 µM.

As a reminder, the IC50 is the midpoint of a concentration-inhibition curve. Read a high IC50 as weaker potency.
